Measurements taken from US7507749B2, “Antitumor agents” (priority 2001, dated 2009).
Values joined by “and” are separate entries in the source; they are usually repeats but may differ in a detail not shown here. Equal entries are not always repeated. Where two headings read alike, the source gives them in different places. One block for each molecule: values may come before it.

Key:
colon carcinoma 26 = test system: colon carcinoma 26
Description: In this trial the R-enantiomers of XK-469, compound 22c, and compound 22b were compared against advanced staged colon carcinoma 26 in female Balb/c mice. […] Cage #2 was 22b at 400 mg/kg and Cage #4 was 22c at 400 mg/kg.
The XK469-R, 22b, and 22c compound doses were all prepared the same, using 3% ethanol, 1% POE-80, and 0.5% sodium bicarbonate. The injection volume was 0.2 mu/mouse IV. […] The mice were Balb/c female mice: DOB Feb. 12, 2001; DOA Mar. 27, 2001; DOT Sep. 8, 2001, with an average body weight of 24.7 grams at the start of Rx administration. The tumor was Colon Carcinoma-26 passage 141; date of implant Sep. 8, 2001, and implanted at 30 to 60 mg fragments bilaterally SC. All tumors were 63 to 171 mg on day 6, the day of first Rx.

B16 melanoma [1] = test system: B16 melanoma
Description: (§1) Tumors were maintained in the mouse strain of origin C57B1/6 (for Panc03, B16), Balb/c (for Colon 26) and C3H (for the mammary tumors). Tumors were transplanted into the appropriate F1 hybrid (BDF1=C57B1/6 female X DBA/2 male) or the strain of origin for the chemotherapy trials. Individual mouse body weights for each experiment were within 5 grams, and all mice were over 17 grams at the start of therapy. The mice were supplied food and water ad libitum.
(§2) Animals were pooled, implanted subcutaneously with 30 to 60 mg tumor fragments by a 12 gauge trocar on day 0, and again pooled before unselective distribution to the various treatment and control groups. For early stage treatment, chemotherapy was started within 1 to 3 days after tumor implantation while the number of cells was relatively small (10^7 to 10^8 cells). For upstaged or advanced staged trials, the tumors were allowed to grow for five or more days before treatment was started. Tumors were measured with a caliper twice weekly. […] Tumor weights are estimated from two-dimensional measurements:
(§3) Tumor weight (in mg)=(a×b^2)/2, where a and b are the tumor length and width in (mm), respectively.
(§4) The following quantitative endpoints were used to assess antitumor activity: • a) Tumor growth delay (T-C value), where T is the median time (in days) required for the treatment group tumors to reach a predetermined size (e.g., 1000 mg), and C is the median time (in days) for the control group tumors to reach the same size. Tumor-free survivors are excluded from these calculations (cures are tabulated separately). This value is an important criterion of antitumor effectiveness because it allows the quantification of tumor cell kill. • b) Calculation of tumor cell kill for subcutaneously (SC) growing tumors, the log10 cell kill was calculated from the following formula:
(§5) The conversion of the T-C values to log10 cell kill is possible because the Td of tumors regrowing post treatment (Rx) approximates the Td values of the tumors in untreated control mice.
It should be noted that an activity rating of +++ to ++++ is needed to effect partial regression (PR) or complete regression (CR) of 100 to 300 mg size masses of most transplanted solid tumors of mice. Thus, an activity rating of + or ++ would not be scored as active by usual clinical criteria. A PR is a reduction in tumor mass to less than 50% of pretreatment size. A CR is a reduction in tumor mass to below palpable size (i.e., reduction to zero detectable mass).
(§6) The T/C value in percent is an indication of antitumor effectiveness: A T/C=0% means no tumor growth. […] A T/C value <10% is considered to indicate highly significant antitumor activity, and is the level used by NCI to justify a clinical trial if toxicity, formulation, and certain other requirements are met (termed DN-2 level activity).
The mice were divided into a control group and three experimental groups. The control group (Cage #1) received no treatment.
A −20% body weight loss is considered excessively toxic by N.C.I. standards.

[2] = test system: mammary adenocarcinoma-16/C/Adr; assay: Test C: evaluation against early stage mammary adenocarcinoma-16/C/Adr; assay type: in vivo
Excerpt: Early stage mammary adenocarcinoma-16/C/Adr is a p-glycoprotein negative multidrug resistant tumor. C3H female mice were obtained from NCI-Kingston-CRL (D.O.B. Apr. 3, 2000; D.O.A. May 16, 2000). […] The control animals (Cage #1) received no treatment.

[3] = test system: pancreatic ductal adenocarcinoma 03
Description: Pancreatic ductal adenocarcinoma-03, B16-melanoma, mammary adenocarcinoma-16/C/Adr, mammary adenocarcinoma-17/Adr, colon adenocarcinoma-26, and mammary adenocarcinoma-16/C were used in the studies.
as §1, §2, §3, §4, §5
In selected cases, both for historic in vivo evaluation data as well as data presented here, it is of value to compare log kill numbers from trials of markedly different testing schedules. […] It should be noted that an activity rating of +++ to ++++ is needed to effect partial regression (PR) or complete regression (CR) of 100 to 300 mg size masses of most transplanted solid tumors of mice. Thus, an activity rating of + or ++ would not be scored as active by usual clinical criteria. A PR is a reduction in tumor mass to less than 50% of pretreatment size. A CR is a reduction in tumor mass to below palpable size (i.e., reduction to zero detectable mass).
as §6
Female BDFl mice (obtained from NCI-Raleigh) (date of birth (hereinafter D.O.B.) Mar. 27, 2000; date of arrival (hereinafter D.O.A.) Apr. 9, 2000) were implanted (tumor implant date (hereinafter D.O.T.) Mar. 17, 2000) with pancreatic ductal adenocarcinoma 03 tumor, divided into treatment and control groups.

[4] = test system: pancreatic ductal adenocarcinoma 03; details: historic; cited from earlier work
[5] = test system: pancreatic ductal adenocarcinoma-03; assay type: in vivo; details: Cg 8 in table (Cage 13 in text); IV 7.5 mg/kg/inj days 6,14; total 15 mg/kg
Description: BDF1 female mice were obtained from N.C.I., CRL-Ral (D.O.B. was Feb. 26, 2001; D.O.A. was Mar. 10, 2001). The mice weighed an average of 22.5 gm. Mice were implanted SC with pancreatic ductal adenocarcinoma-03 passage 143. (D.O.T. was May 29, 2001; Td was 2.3 days).
The R-enantiomer of compound 22c was suspended in 3% ethanol, 1% POE-80, 0.25% sodium bicarbonate (by volume) to effect solution. dH2O was then added, and the pH adjusted to 7 with HCl. […] The R-enantiomer of compound 22b was suspended in 3% ethanol, 1% POE-80, 0.5% sodium-bicarbonate (by volume) to effect solution. Then, dH2O was added, and the pH adjusted to 7.5 with HCl. […] Adriamycin (source ADRIA; lot 2033BC) was suspended in dH2O to effect solution, and the pH was 6.0.
Treatment began six days following implant, at which time the tumors were palpable size (126 mg median). The duration of treatment was prolonged (18 days) in order to obtain a clear separation in efficacy between the compounds.

B16 melanoma [6] = details: historic, B16 melanoma implanted subcutaneously (SC); cited from earlier work
[7] = test system: mammary adenocarcinoma-16/C; assay: Test F: R-enantiomers of 22b and 22c against early staged mammary adenocarcinoma-16/C; assay type: in vivo, C3H female mice; details: Cage 11, IV 7.5 mg/kg/inj days 1,5, total 15 mg/kg
Description: C3H female mice were obtained from N.C.I. (D.O.B. was […]; D.O.A. was Jan. 27, 2001). The mice weighed an average of 19.2 gm. Mice were implanted SC with mammary adenocarcinoma-16/C passage-170, a fast growing, highly invasive, highly metastatic tumor (D.O.T. was Mar. 8, 2001; Td was 1.2 days).
The R-enantiomers of both Compound 22c and Compound 22b were each suspended in 3% ethanol, 1% POE-80, 0.5% sodium bicarbonate (by volume) to effect solution, P.B.S. was then added and the pH adjusted to 7 with HCl. Adriamycin (ADRIA; lot number 20338c) was suspended in dH2O to effect solution and the pH was adjusted to 6.0. Mice were administered 0.2 ml per IV injection.

[8] = Cg 3, IV 50 mg/kg/inj days 6,8,10,13,15, total 250 mg/kg
[9] = Cage 2, IV 40 mg/kg/inj days 1-4, 8 inj, total 320 mg/kg
[10] = Cage 3, IV 50 mg/kg/inj daily days 1-5, total 250 mg/kg
[11] = Cage 4, IV 30 mg/kg/inj daily days 1-6, total 180 mg/kg
[12] = Cage 2, IV 42 mg/kg twice daily days 1-3 and 11-13, total 504 mg/kg
[13] = Cage 3, IV 27 mg/kg twice daily days 1-3 and 11-13, total 324 mg/kg
[14] = Cage 7, IV daily days 3-9, 7 inj, total 336 mg/kg

melting point: 164 to 166 °C
SMILES: COc1ccc2ccc(Oc3ccc(OC(C)C(=O)O)cc3)nc2c1 (stereo not drawn)

SMILES: CC(Oc1ccc(Oc2ccc3ccc(Cl)cc3n2)cc1)C(=O)O (racemic) [Compound 22b, 2-[4-(7-chloroquinolin-2-yloxy)phenoxy]propanoic acid]
Toxicity of dose group (colon carcinoma 26; Cage 2, 400 mg/kg, omitted from Table 8): toxic
Activity Rating (colon carcinoma 26; [8]): ++ (1.3-1.9)
CR's (colon carcinoma 26; [8]): 1/6
Log Kill (colon carcinoma 26; [8]): 1.4
% T/C mass (B16 melanoma [1]; [9]): 0%
Cause of death (B16 melanoma [1]; [9]): marrow toxicity
Drug Deaths (B16 melanoma [1]; [9]): 1/5
Growth Delay (B16 melanoma [1]; [9]): 12.5 days
Log Kill (B16 melanoma [1]; [9]): 3.8
Median Tumor Mass on Day 9 (Range) (B16 melanoma [1]; [9]): 0 (all zeros) mg
Tumor Free day-24 (B16 melanoma [1]; [9]): 0.5
Activity Rating (B16 melanoma [1]; Cage 2, IV 40 mg/kg/inj days 1-4, 8 inj, total 320 mg/kg, listed as 22b (racemic)): toxic
% T/C mass (B16 melanoma [1]; [10]): 0%
Activity Rating (B16 melanoma [1]; [10]): +++ (2.0-2.8)
Drug Deaths (B16 melanoma [1]; [10]): 0/5
Growth Delay (B16 melanoma [1]; [10]): 8.5 days
Log Kill (B16 melanoma [1]; [10]): 2.6
Median Tumor Mass on Day 9 (Range) (B16 melanoma [1]; [10]): 0 (all zeros) mg
Tumor Free day-24 (B16 melanoma [1]; [10]): 0/5
% T/C mass (B16 melanoma [1]; [11]): 15.6%
Activity Rating (B16 melanoma [1]; [11]): ++ (1.3-1.9)
Drug Deaths (B16 melanoma [1]; [11]): 0/5
Growth Delay (B16 melanoma [1]; [11]): 6.0 days
Log Kill (B16 melanoma [1]; [11]): 1.8
Median Tumor Mass on Day 9 (Range) (B16 melanoma [1]; [11]): 221 (63-334) mg
Tumor Free day-24 (B16 melanoma [1]; [11]): 0/5
Day of Nadir (B16 melanoma [1]; mouse, in vivo): 8 days
Day of full recovery of body weight (B16 melanoma [1]; mouse, in vivo): 11 days and 9 days
Duration of neuromuscular toxicity post injection (B16 melanoma [1]; mouse, in vivo): over 20 minutes
Neuromuscular toxicity (slowing of nerve conduction) (B16 melanoma [1]; mouse, in vivo): substantial post injection neuromuscular toxicity and mild
% Body Wt Loss at Nadir [2, 12]: −15%
% T/C mass [2, 12]: 0%
Activity Rating [2, 12]: +++ (2.0-2.8)
Day of Nadir [2, 12]: 7 days
Day of full recovery of body weight [2, 12]: 12 days
Drug Deaths [2, 12]: 0/6
Growth Delay [2, 12]: 8.0 days
Log Kill [2, 12]: 2.0
Median Tumor Mass on Day 11 (Range) [2, 12]: 0 (0-308) mg
Tumor Free day-18 [2, 12]: 0/6
Neuromuscular toxicity ([2]; Cage 2, IV 42 mg/kg twice daily, lasting about ten minutes post injection): modest neuromuscular gait disturbance
Neuromuscular toxicity ([2]; Cage 3, IV 27 mg/kg twice daily): insignificant gait disturbance
% Body Wt Loss at Nadir [2, 13]: −1.1%
% T/C mass [2, 13]: 53%
Activity Rating [2, 13]: inactive
Day of Nadir [2, 13]: 7 days
Day of full recovery of body weight [2, 13]: 8 days
Drug Deaths [2, 13]: 0/6
Growth Delay [2, 13]: 2.25 days
Log Kill [2, 13]: 0.6
Median Tumor Mass on Day 11 (Range) [2, 13]: 741 (516-1199) mg
Tumor Free day-18 [2, 13]: 0/6
% T/C mass [3, 14]: 0%
Activity Rating [3, 14]: +++ (2.0-2.8)
Drug Deaths [3, 14]: 0/5
Growth Delay In Days [3, 14]: 17.5 days
Log Kill [3, 14]: 2.6
Median Tumor Mass on Day 14 (Range) [3, 14]: 0 (0-126) mg
Tumor Free day-37 [3, 14]: 0/5
% Body Wt Loss at Nadir ([3]; mouse, in vivo): −8.9%
Day of Nadir ([3]; mouse, in vivo): 11 days

SMILES: COc1cccc2c1C(=O)c1c(O)c3c(c(O)c1C2=O)C[C@@](O)(C(=O)CO)C[C@@H]3O[C@H]1C[C@H](N)[C@H](O)[C@H](C)O1 [Adriamycin, reference compound]
activity rating (sensitivity of the tumor to standard agents) [4]: +++ (2.0-2.8)
% Body Wt change between day 6 and day 24 [5]: −5.4%
% T/C mass [5]: 17.0%
Activity Rating [5]: +++ (2.0-2.8)
CR's [5]: 1/5
Drug Deaths [5]: 0/5
Growth Delay [5]: 17.5 days
Log Kill [5]: 2.3
Median Tumor Mass on Day 24 (Range) [5]: 383 mg
Median time for tumors to 1,000 mg (range) [5]: 34 days
PR's [5]: 1/5
Tumor Free day-157 [5]: 0/5
activity rating (responsiveness of the tumor to standard agents) (B16 melanoma [6]): +or +/−
% Body Wt Loss at Nadir [7]: 0%
% T/C mass [7]: 0%
Day of Nadir [7]: 8 days
Drug Deaths [7]: 1/5
Growth Delay [7]: 12.0 days
Log Kill [7]: 3.6
Median Tumor Mass on Day 10 (Range) [7]: 0 mg
Median time for tumors to 1000 mg (range) [7]: 21.5 (17-27.5) days
Tumor Free day-155 [7]: 0/5
% Body Wt Loss at Nadir ([7]; listed as adriamycin): no body weight loss
% T/C mass ([7]; listed as adriamycin): 0%
Activity Rating ([7]; listed as adriamycin): ++++ (>2.8)
Drug Deaths ([7]; listed as adriamycin): one delayed drug-death

SMILES: O=NN(CCCl)C(=O)NCCCl [BCNU]
activity rating (responsiveness of the tumor to standard agents) (B16 melanoma [6]): ++++ (>2.8)

SMILES: O=c1[nH]cc(F)c(=O)[nH]1 [Compound 5-FU, 5-FU]
activity rating (sensitivity of the tumor to standard agents) [4]: + (0.7-1.2)

SMILES: CC[C@@]1(O)C(=O)OCc2c1cc1n(c2=O)Cc2cc3ccccc3nc2-1 [camptothecin]
activity rating (responsiveness of the tumor to standard agents) (B16 melanoma [6]): +or +/−

SMILES: CC(=O)O[C@H]1C(=O)[C@@]2(C)[C@H]([C@H](OC(=O)c3ccccc3)[C@]3(O)C[C@H](OC(=O)[C@H](O)[C@@H](NC(=O)c4ccccc4)c4ccccc4)C(C)=C1C3(C)C)[C@]1(OC(C)=O)CO[C@@H]1C[C@@H]2O [taxol]
activity rating (sensitivity of the tumor to standard agents) [4]: ++++ (>2.8)
activity rating (responsiveness of the tumor to standard agents) (B16 melanoma [6]): +or +/−
